Assay results published in ChEMBL document CHEMBL1240475, “Design and synthesis of novel isoxazole-based HDAC inhibitors” (Eur J Med Chem, 2010).
pIC50: −log10 of the molar value.

Key:
[1] = molecular target: T1, Histone deacetylase (Homo sapiens) (UniProt Q13547+O15379+Q9UBN7+Q92769+Q9UQL6+Q8WUI4+Q9BY41+Q96DB2+P56524+Q9UKV0+Q969S8); conditions: HeLa, at 10 µM
Description: Inhibition of HDAC in human HeLa cells at 10 uM after 15 mins

Histone deacetylase 1 = Histone deacetylase 1 (Homo sapiens, UniProt Q13547); assay: Inhibition of HDAC1
Histone deacetylase 3 = Histone deacetylase 3 (Homo sapiens, UniProt O15379); assay: Inhibition of HDAC3
[2] = molecular target: T1, Histone deacetylase (Homo sapiens); conditions: HeLa, at 0.1 µM
Description: Inhibition of HDAC in human HeLa cells at 0.1 uM after 15 mins

[3] = molecular target: T1, Histone deacetylase (Homo sapiens); conditions: HeLa, at 1 µM
Description: Inhibition of HDAC in human HeLa cells at 1 uM after 15 mins

[4] = molecular target: T2, Protein deacetylase HDAC6 (Homo sapiens, UniProt Q9UBN7); assay: Inhibition of HDAC6
T2 sequence (Q9UBN7 whole entry): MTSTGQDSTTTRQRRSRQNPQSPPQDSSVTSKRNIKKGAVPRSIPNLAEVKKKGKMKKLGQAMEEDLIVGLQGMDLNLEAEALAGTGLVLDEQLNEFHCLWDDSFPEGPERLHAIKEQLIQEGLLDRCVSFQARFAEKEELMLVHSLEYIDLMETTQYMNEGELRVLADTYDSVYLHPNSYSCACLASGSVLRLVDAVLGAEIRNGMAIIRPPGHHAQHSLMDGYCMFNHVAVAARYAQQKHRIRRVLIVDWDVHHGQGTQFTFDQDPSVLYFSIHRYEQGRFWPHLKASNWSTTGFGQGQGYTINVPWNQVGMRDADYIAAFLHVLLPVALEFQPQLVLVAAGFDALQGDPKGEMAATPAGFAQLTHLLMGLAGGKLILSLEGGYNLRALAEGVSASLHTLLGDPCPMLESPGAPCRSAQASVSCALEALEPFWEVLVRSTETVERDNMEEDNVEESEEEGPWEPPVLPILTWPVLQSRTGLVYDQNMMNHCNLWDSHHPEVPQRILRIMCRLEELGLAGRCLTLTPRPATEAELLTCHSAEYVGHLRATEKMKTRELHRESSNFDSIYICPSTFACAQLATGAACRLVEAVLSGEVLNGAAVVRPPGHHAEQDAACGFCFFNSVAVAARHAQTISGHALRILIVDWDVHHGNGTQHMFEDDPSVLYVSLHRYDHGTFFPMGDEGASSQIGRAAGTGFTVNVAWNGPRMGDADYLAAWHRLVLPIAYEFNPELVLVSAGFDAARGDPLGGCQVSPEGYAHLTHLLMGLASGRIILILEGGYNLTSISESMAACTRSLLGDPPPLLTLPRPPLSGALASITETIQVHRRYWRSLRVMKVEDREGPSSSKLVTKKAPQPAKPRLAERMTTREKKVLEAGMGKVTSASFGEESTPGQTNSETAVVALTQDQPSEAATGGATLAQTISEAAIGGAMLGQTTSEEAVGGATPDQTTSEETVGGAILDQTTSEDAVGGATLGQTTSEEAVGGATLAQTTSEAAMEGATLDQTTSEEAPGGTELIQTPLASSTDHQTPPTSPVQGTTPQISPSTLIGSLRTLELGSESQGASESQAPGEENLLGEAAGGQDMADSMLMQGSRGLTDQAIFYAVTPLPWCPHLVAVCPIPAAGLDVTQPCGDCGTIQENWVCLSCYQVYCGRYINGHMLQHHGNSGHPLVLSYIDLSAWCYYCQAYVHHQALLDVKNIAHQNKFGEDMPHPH

Histone deacetylase 2 = Histone deacetylase 2 (Homo sapiens, UniProt Q92769)
[5] = molecular target: T3, Polyamine deacetylase HDAC10 (Homo sapiens, UniProt Q969S8); assay: Inhibition of HDAC10
T3 sequence (Q969S8 whole entry): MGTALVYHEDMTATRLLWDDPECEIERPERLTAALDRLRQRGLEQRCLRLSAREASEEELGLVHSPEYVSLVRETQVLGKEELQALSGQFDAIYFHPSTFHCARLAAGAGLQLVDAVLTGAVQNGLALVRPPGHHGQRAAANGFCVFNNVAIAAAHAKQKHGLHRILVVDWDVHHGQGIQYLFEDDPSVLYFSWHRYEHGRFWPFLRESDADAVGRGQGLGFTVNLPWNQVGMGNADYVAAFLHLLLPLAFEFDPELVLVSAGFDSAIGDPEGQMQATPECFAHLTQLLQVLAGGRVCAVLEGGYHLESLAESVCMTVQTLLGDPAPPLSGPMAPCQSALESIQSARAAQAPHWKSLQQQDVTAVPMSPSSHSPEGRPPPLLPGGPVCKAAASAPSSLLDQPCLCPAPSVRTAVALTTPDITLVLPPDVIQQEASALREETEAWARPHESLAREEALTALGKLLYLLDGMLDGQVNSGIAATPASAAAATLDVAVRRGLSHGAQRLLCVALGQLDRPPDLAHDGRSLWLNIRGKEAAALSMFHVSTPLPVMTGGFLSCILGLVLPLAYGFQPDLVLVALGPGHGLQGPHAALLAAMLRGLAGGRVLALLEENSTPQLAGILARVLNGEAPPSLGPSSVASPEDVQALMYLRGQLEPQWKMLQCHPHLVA

Chain of Histone deacetylase 2 (Q92769 whole entry): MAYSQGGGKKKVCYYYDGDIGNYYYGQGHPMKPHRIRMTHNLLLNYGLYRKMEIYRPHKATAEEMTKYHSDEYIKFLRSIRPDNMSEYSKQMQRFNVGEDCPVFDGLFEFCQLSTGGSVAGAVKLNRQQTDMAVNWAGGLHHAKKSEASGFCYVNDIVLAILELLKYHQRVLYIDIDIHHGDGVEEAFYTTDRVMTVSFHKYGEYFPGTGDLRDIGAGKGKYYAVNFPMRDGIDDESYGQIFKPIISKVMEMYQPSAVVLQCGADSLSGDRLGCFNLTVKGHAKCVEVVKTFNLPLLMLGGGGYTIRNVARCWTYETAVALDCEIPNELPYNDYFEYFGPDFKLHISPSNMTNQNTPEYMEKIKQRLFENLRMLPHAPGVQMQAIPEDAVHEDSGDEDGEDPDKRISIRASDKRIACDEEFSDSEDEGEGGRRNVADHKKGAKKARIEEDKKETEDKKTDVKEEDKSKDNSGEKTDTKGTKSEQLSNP
Chain of Histone deacetylase 3 (O15379 whole entry): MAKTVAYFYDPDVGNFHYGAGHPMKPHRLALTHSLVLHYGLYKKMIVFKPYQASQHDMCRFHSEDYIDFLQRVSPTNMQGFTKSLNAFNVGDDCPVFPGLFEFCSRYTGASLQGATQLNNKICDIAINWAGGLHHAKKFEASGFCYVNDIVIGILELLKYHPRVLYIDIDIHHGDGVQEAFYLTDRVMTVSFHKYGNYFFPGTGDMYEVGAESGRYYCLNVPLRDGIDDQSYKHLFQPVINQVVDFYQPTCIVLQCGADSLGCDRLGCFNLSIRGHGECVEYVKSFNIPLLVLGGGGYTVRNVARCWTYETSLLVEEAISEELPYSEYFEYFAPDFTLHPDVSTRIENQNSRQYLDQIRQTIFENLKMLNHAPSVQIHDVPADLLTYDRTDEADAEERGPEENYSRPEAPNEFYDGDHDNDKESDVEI
Chain of Histone deacetylase 1 (Q13547 whole entry): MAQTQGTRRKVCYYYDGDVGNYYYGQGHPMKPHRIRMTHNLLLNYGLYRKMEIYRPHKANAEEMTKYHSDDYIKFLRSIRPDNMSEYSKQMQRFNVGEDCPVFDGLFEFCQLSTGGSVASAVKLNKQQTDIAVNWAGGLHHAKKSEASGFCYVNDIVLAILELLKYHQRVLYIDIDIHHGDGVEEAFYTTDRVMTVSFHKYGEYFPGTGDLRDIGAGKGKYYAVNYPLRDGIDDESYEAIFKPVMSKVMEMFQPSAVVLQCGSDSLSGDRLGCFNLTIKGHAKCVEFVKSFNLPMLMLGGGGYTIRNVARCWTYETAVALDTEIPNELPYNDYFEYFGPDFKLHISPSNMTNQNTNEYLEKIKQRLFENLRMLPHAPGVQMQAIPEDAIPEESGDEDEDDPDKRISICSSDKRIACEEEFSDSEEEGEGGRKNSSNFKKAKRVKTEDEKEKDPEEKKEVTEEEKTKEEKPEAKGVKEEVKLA

Work on `O=C(CCCCC1CC(C(=O)NO)=NO1)Nc1ccccc1` (centres undefined) yielded an inhibition [1] of 77%, a pIC50 (Histone deacetylase 1) of 4.75 and a pIC50 (Histone deacetylase 3) of 4.55. It also gave an inhibition [2] of 4%, an inhibition [3] of 16.8% and a pIC50 [4] of 6.12. For the same molecule, the pIC50 (Histone deacetylase 2) was 4.44 and the pIC50 [5] was 4.62.

Work on `NNC(=O)c1cc(CCCCC(=O)Nc2ccccc2)on1` yielded an inhibition [1] of 8%, an inhibition [2] of 0% and an inhibition [3] of 0%.

`Nc1ccccc1-c1cc(CCCCC(=O)Nc2ccccc2)on1` gave an inhibition [1] of 0.5%, an inhibition [2] of 0% and an inhibition [3] of 0%.

`O=C(CCCCc1cc(/C=N/O)no1)Nc1ccccc1` gave an inhibition [1] of 7.5%, an inhibition [2] of 0% and an inhibition [3] of 0.75%.

Molecule `O=C(CCCCc1cc(C(=O)NO)no1)Nc1ccccc1` has an inhibition [1] of 78.5%, a pIC50 (Histone deacetylase 1) of 5.31 and a pIC50 (Histone deacetylase 3) of 4.57. For the same molecule, the inhibition [2] was 1.5%, the inhibition [3] was 26% and the pIC50 [4] was 6.37. For the same molecule, the pIC50 (Histone deacetylase 2) was 4.72 and the pIC50 [5] was 5.04.

For `O=C(CCCCc1cc(CO)no1)Nc1ccccc1`, the inhibition [1] was 0%, the inhibition [2] was 0% and the inhibition [3] was 0%.

Work on `O=C(CCCCc1cc(Cc2nn[nH]n2)no1)Nc1ccccc1` yielded an inhibition [1] of 5%, an inhibition [2] of 0% and an inhibition [3] of 0%.

Work on `Nc1cc(CCCCC(=O)Nc2ccccc2)on1` yielded an inhibition [1] of 0%, an inhibition [2] of 4.5% and an inhibition [3] of 0%.

For `O=C(CCCCc1cc(-c2ccccc2O)no1)Nc1ccccc1`, the inhibition [1] was 0%, the inhibition [2] was 0% and the inhibition [3] was 0%.

Work on `O=C(CCCCc1cc(C(=O)O)no1)Nc1ccccc1` yielded an inhibition [1] of 0.5%, an inhibition [2] of 0% and an inhibition [3] of 0%.

With `O=C(CCCCc1cc(CS)no1)Nc1ccccc1` the inhibition [1] was 80%, the inhibition [2] was 4.5% and the inhibition [3] was 22%.

In the case of `O=C(CCCC1CC(C(=O)NO)=NO1)Nc1ccccc1` (centres undefined), the inhibition [1] was 56%, the inhibition [2] was 3.5% and the inhibition [3] was 9.75%.

`O=C(CCCc1cc(C(=O)NO)no1)Nc1ccccc1` showed an inhibition [1] of 78.5%, an inhibition [2] of 4.5% and an inhibition [3] of 23.8%.
